Values joined by “and” are separate entries in the source; they are usually repeats but may differ in a detail not shown here. Equal entries are not always repeated. Where two headings read alike, the source gives them in different places.
How the values were obtained:
Eg.TRPMPZQ = Eg.TRPMPZQ (Echinococcus granulosus, UniProt W6UVV9); assay: cell-based; conditions: HEK293, Ca2+ reporter, mean ± standard deviation; read-out: Bmax, Eg.TRPMPZQ activation
juvenile schistosomes = assay: Microscopy analysis of juvenile morphology and motility (viability score 0-3); conditions: 72 h
Fh.TRPMPZQ = assay: Ca2+ reporter (FLIPR) activation assay, Fh.TRPMPZQ in HEK293 cells; format: cell-based, Fasciola hepatica; conditions: at the tested concentrations, data not shown
Procedure: (§1) Finally, selectivity for Sm.TRPMPZQ was assessed by profiling responses on the F. hepatica (Fh.TRPMPZQ) and E. granulosus (Eg.TRPMPZQ) TRPMPZQ orthologs, as well as the schistosome TRPM paralog Sm.TRPMMCLZ, a distinct TRPM channel activated by meclonazepam. Meclonazepam is an anthelmintic benzodiazepine known for its toxicity to juvenile schistosome worms.
(§2) The Ca^2+ reporter assay was performed using a Fluorescence Imaging Plate Reader (FLIPR) system, as described in the Supporting Information. […]
(§3) The half-maximal inhibitory
(§4) Windows (GraphPad Software, Boston, MA, USA; www.graphpad.com). […]
(§5) with DMSO as a negative control. […]
(§6) reader. […] The fluorescence
(§7) Untransfected HEK293 cells were used as a control.
(§8) 10% fetal bovine serum (FBS). […]
(§9) atmosphere containing 5% CO₂. Following incubation, the growth medium was removed and […]
(§10) buffer containing 2.5 mM probenecid in HBSS (with Ca²⁺ and Mg²⁺), 20 mM HEPES, 0.3% BSA (Sigma, A7030), and 0.03% L-ascorbic acid (Sigma). Cells were incubated for 40 minutes at 37 °C and subsequently for 20 minutes at room temperature. A total of seven PZQ derivatives were tested, using racemic PZQ included as a positive control on each assay plate. Drug dilutions were prepared in assay buffer without dye and probenecid and dispensed into separate flat-bottom 384-well plates. Calcium flux measurements were performed at room temperature using a […]
(§11) instrument (Molecular Devices). Baseline fluorescence was recorded for 20 seconds, followed by the addition of 5 µL of each drug solution, after which fluorescence was measured continuously for 250 seconds. […]

Sm.TRPMPZQ (wild-type) = Sm.TRPMPZQ (wild-type) (Schistosoma mansoni, UniProt A0A5K4F0X5); assay: Ca2+ reporter (FLIPR) activation assay, wild-type Sm.TRPMPZQ in HEK293 cells; format: cell-based
Procedure: as §2, §3, §4, §5, §6, §7, §8, §9
buffer containing 2.5 mM probenecid in HBSS (with Ca²⁺ and Mg²⁺), 20 mM HEPES, 0.3% BSA (Sigma, A7030), and 0.03% L-ascorbic acid (Sigma). Cells were incubated for 40 minutes at 37 °C and subsequently for 20 minutes at room temperature. […]
prepared in assay buffer without dye and probenecid and dispensed into separate flat-bottom 384-well plates. Calcium flux measurements were performed at room temperature using a […]
as §11

[1] = system: adult schistosomes (male and female worms); assay: Adult worm ex vivo high-content image-based motility assay; format: cell-based, Schistosoma mansoni
Procedure: Adult schistosomes’ motility was determined using a high-content assay previously developed by our group, , with images analyzed in CellProfiler software. More details are provided in the Supporting Information.
(§12) Adult worm ex-vivo high-content assay
“Area” and “False Negative Rate” from the MeasureObjectSizeShape and MeasureObjectOverlap modules, respectively. These measurements were then modeled by a multilevel generalized linear statistical model. The effects of the experimental treatments on […]
as §3, §4
with DMSO as a negative control.

Sm.TRPMMCLZ = assay: Ca2+ reporter (FLIPR) activation assay, Sm.TRPMMCLZ in HEK293 cells; format: cell-based, Schistosoma mansoni; conditions: at the tested concentrations, data not shown
Procedure: as §1, §2, §3, §4, §5, §6, §7, §8, §9, §10, §11

in vitro = conditions: human, HepG2 cytotoxicity (CC50)
Procedure: (§13) Next, we conducted a more detailed investigation by performing dose–response assays with each compound on HepG2 hepatic epithelial cells, as the liver is one of the major organs affected in intestinal schistosomiasis.
(§14) More details are provided in the Supporting Information.
as §12
(§15) Male and female worms were placed in 96-well microplates (one worm per well) and incubated […]
(§16) to 72 hours. Brightfield timelapse images (100 images, 0.3-second intervals) were captured from each well before, immediately after, and every 24 hours following compound addition using an ImageXpress Micro Confocal High Content System equipped with a 2x objective. Image analysis was performed through a custom pipeline in CellProfiler software (v. 4.2.1, Windows OS).57 During analysis, the area of each worm and its displacement between consecutive image captures (i.e., images taken at successive time points) were measured using the parameters “Area” and “False Negative Rate” from the MeasureObjectSizeShape and MeasureObjectOverlap modules, respectively. These measurements were then modeled by a multilevel generalized linear statistical model. The effects of the experimental treatments on parasite motility were estimated with the integrated nested Laplace approximation (INLA) method, available in the INLA package of R (https://www.r-inla.org). The half-maximal inhibitory concentration (EC50) of each compound was calculated based on the worms' estimated motility using the […] 4-parameter logistic equation in GraphPad Prism version 9.0.0 for Windows (GraphPad Software, Boston, MA, USA; www.graphpad.com). […]
(§17) either at a fixed concentration (10 µM) or across a range of concentrations (0.0001–300 µM), or with DMSO as a negative control. Two hours before the end of the experiment (t0), a resazurin solution (final concentration: 0.01 mg/mL) was added to each well and the first fluorescence […]
(§18) reader. At the end of the incubation (t1), a second reading was performed. The fluorescence attributed solely to resorufin was measured by subtracting the fluorescence readings at t0 from those at t1. The results were expressed as percentual cell viability considering negative control

[2] = system: HepG2 hepatic epithelial cells; assay: in vitro
Procedure: as §13, §14, §12, §15, §16, §17, §18

Chain of Sm.TRPMPZQ (wild-type) (A0A5K4F0X5 entry or part of it): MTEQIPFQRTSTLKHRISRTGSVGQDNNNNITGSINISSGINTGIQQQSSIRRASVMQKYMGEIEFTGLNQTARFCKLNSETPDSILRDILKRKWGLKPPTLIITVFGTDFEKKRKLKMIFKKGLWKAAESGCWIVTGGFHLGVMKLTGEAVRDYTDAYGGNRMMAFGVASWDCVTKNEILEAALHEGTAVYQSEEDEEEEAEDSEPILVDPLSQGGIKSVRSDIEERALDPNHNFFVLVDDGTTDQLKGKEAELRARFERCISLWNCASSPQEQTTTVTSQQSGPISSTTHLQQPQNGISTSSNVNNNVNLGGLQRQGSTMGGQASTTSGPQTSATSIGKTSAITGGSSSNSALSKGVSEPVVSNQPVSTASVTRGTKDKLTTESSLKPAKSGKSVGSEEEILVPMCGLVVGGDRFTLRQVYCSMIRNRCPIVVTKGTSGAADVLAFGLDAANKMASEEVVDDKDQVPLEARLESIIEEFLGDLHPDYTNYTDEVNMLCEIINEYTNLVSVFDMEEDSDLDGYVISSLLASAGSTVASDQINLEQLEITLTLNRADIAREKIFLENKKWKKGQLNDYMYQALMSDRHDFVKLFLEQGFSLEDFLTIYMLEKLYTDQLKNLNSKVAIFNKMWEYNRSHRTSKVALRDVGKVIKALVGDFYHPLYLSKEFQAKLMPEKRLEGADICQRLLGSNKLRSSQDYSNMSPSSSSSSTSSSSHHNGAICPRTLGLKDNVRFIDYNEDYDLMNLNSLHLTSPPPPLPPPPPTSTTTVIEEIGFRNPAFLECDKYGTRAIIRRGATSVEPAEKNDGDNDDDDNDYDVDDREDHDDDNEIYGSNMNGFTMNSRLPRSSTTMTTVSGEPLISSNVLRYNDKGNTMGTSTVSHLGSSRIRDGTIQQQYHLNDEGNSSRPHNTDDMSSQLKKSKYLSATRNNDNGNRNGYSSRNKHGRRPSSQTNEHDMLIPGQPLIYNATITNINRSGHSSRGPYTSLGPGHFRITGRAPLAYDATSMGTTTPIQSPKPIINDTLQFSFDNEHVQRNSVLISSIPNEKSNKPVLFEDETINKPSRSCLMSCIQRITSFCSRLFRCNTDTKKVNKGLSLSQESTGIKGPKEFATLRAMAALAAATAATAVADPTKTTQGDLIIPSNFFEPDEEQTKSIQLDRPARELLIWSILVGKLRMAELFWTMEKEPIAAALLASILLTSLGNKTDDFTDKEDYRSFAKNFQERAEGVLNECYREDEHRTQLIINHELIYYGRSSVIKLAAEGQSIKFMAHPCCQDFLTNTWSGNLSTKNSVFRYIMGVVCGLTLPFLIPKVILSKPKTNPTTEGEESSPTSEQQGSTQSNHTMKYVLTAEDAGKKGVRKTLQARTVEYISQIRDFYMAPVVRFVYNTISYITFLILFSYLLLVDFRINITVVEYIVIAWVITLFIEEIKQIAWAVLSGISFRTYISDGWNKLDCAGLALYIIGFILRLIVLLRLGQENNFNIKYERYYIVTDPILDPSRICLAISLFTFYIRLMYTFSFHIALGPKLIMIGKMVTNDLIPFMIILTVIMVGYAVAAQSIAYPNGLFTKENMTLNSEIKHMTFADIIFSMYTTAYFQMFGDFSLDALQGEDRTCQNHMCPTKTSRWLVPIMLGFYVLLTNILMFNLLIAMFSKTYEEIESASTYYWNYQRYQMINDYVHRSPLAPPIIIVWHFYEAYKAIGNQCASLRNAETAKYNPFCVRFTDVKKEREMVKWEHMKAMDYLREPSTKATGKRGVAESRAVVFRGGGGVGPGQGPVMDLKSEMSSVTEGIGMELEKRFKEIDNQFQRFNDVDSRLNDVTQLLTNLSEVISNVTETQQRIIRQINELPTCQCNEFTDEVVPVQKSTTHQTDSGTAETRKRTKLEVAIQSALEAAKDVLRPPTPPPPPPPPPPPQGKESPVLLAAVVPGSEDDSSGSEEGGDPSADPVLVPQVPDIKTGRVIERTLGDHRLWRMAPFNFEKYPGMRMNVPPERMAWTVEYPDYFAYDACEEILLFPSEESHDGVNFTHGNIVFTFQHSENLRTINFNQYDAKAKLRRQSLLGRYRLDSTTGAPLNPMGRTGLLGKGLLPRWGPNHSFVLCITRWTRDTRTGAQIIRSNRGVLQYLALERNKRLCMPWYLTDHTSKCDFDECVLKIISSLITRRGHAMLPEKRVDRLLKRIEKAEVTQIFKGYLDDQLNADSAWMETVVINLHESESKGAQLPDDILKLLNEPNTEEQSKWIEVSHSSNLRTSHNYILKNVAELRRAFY
Chain of Eg.TRPMPZQ (W6UVV9 entry or part of it): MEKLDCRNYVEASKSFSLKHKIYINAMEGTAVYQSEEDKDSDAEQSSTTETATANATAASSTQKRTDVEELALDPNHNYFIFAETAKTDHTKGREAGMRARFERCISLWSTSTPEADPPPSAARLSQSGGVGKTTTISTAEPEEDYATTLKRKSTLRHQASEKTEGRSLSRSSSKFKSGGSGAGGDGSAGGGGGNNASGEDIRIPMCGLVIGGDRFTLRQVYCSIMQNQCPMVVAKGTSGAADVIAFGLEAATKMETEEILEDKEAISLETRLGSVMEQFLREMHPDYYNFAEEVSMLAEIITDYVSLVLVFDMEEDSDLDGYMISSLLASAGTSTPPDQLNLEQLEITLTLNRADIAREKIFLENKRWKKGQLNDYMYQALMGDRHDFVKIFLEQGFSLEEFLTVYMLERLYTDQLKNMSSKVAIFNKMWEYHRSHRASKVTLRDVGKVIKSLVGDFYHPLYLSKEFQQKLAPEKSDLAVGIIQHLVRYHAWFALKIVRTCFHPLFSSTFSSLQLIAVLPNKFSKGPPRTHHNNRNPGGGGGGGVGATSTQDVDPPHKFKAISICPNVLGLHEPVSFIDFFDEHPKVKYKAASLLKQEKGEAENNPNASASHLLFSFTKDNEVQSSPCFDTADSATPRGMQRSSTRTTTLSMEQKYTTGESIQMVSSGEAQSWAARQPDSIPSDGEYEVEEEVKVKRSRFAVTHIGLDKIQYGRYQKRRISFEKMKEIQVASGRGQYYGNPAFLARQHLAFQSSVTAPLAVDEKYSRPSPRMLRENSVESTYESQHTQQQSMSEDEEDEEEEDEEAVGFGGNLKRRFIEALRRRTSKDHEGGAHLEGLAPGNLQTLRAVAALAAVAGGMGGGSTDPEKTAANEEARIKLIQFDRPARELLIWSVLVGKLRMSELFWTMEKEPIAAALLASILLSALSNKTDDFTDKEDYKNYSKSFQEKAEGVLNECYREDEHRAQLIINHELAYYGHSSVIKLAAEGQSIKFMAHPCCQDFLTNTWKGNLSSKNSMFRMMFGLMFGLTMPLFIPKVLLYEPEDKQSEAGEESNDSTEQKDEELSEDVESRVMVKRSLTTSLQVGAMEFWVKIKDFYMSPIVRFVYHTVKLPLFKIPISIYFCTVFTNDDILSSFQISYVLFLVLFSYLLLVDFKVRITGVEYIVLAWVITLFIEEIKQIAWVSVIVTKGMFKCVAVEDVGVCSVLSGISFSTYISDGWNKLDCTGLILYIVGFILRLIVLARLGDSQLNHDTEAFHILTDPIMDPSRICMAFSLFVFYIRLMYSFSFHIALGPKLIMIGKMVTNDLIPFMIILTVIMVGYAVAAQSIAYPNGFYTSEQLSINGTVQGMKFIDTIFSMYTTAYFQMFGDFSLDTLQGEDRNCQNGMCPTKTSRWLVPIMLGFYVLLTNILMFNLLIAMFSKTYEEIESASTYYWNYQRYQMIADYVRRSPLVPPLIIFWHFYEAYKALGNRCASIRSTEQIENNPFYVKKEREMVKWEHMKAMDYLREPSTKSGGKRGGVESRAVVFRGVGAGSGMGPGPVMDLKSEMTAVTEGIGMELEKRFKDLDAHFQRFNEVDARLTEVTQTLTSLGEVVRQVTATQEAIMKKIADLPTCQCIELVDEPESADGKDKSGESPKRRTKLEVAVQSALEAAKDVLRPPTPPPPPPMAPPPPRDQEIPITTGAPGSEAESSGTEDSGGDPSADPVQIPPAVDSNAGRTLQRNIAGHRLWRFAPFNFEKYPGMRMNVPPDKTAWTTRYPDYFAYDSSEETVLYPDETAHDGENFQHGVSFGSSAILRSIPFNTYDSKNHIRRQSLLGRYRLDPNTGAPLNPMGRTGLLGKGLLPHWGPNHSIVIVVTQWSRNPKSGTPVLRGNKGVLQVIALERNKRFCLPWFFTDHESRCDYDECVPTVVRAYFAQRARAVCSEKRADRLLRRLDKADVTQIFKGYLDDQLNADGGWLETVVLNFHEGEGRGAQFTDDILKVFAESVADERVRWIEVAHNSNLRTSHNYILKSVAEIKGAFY

CCCc1cn(-c2ccc3c(c2)C2CN(C(=O)C4CCCCC4)CC(=O)N2CC3)nn1 (stereo not shown) [Compound 5e]
Emax (Eg.TRPMPZQ): 132 ± 15%
number of juvenile worms with viability score 0 (juvenile schistosomes; 10 μM, Table S1): 61
number of juvenile worms with viability score 1 (juvenile schistosomes; 10 μM, Table S1): 7
number of juvenile worms with viability score 2 (juvenile schistosomes; 10 μM, Table S1): 34
number of juvenile worms with viability score 3 (juvenile schistosomes; 10 μM, Table S1): 6
viability at 10 µM (juvenile schistosomes; Schistosoma mansoni, read-out: Relative frequency of viability score 3): 5.6%
activation of Fh.TRPMPZQ (Fh.TRPMPZQ): did not activate
EC50 (Sm.TRPMPZQ (wild-type); 0.001 to 100 μM): 4230 ± 150 nM
Emax (Sm.TRPMPZQ (wild-type); read-out: Bmax, wild-type Sm.TRPMPZQ activation): 90.2 ± 1.53%
EC50 ([1]; Schistosoma mansoni, 0 h, female adult worms, 0 h (immediately after addition), single experiment or geometric mean, read-out: Female worm motility inhibition (EC50)): 3500 nM
EC50 ([1]; Schistosoma mansoni, 0 h, female, 0 h, individual experiments, read-out: Female worm motility inhibition (EC50), values of independent experiments): 2980 nM
EC50 ([1]; Schistosoma mansoni, 0 h, male adult worms, 0 h (immediately after addition), single experiment or geometric mean, read-out: Male worm motility inhibition (EC50)): 2600 nM
EC50 ([1]; Schistosoma mansoni, 0 h, male, 0 h, individual experiments, read-out: Male worm motility inhibition (EC50), values of independent experiments): 2500 nM
EC50 ([1]; Schistosoma mansoni, 24 h, female adult worms, 24 h, single experiment or geometric mean, read-out: Female worm motility inhibition (EC50)): 3600 nM
EC50 ([1]; Schistosoma mansoni, 24 h, female, 24 h, individual experiments, read-out: Female worm motility inhibition (EC50), values of independent experiments): 3700 nM
EC50 ([1]; Schistosoma mansoni, 24 h, male adult worms, 24 h, single experiment or geometric mean, read-out: Male worm motility inhibition (EC50)): 2500 nM
EC50 ([1]; Schistosoma mansoni, 24 h, male, 24 h, individual experiments, read-out: Male worm motility inhibition (EC50), values of independent experiments): 2290 nM
EC50 ([1]; Schistosoma mansoni, 48 h, female adult worms, 48 h, single experiment or geometric mean, read-out: Female worm motility inhibition (EC50)): 3900 nM
EC50 ([1]; Schistosoma mansoni, 48 h, female, 48 h, individual experiments, read-out: Female worm motility inhibition (EC50), values of independent experiments): 3140 nM
EC50 ([1]; Schistosoma mansoni, 48 h, male adult worms, 48 h, single experiment or geometric mean, read-out: Male worm motility inhibition (EC50)): 1900 nM
EC50 ([1]; Schistosoma mansoni, 48 h, male and female, 48 h, read-out: EC50 against schistosomes (adult motility), span over male and female): 1900 to 3900 nM
EC50 ([1]; Schistosoma mansoni, 48 h, male, 48 h, individual experiments, read-out: Male worm motility inhibition (EC50), values of independent experiments): 1700 nM
EC50 ([1]; Schistosoma mansoni, 72 h, female adult worms, 72 h, single experiment or geometric mean, read-out: Female worm motility inhibition (EC50)): 3100 nM
EC50 ([1]; Schistosoma mansoni, 72 h, female, 72 h, individual experiments, read-out: Female worm motility inhibition (EC50), values of independent experiments): 2940 nM
EC50 ([1]; Schistosoma mansoni, 72 h, male adult worms, 72 h, single experiment or geometric mean, read-out: Male worm motility inhibition (EC50)): 1700 nM
EC50 ([1]; Schistosoma mansoni, 72 h, male, 72 h, individual experiments, read-out: Male worm motility inhibition (EC50), values of independent experiments): 1640 nM
EC50 ([1]; Schistosoma mansoni, female, 0-72 h, read-out: EC50 against female adult worms (motility), span over incubation times): 3100 to 3900 nM
EC50 ([1]; female, 0 h, individual experiments, read-out: Female worm motility inhibition (EC50), values of independent experiments): 2780 nM
EC50 ([1]; female, 48 h, individual experiments, read-out: Female worm motility inhibition (EC50), values of independent experiments): 4770 nM
EC50 ([1]; female, 72 h, individual experiments, read-out: Female worm motility inhibition (EC50), values of independent experiments): 3300 nM
EC50 ([1]; male, 0 h, individual experiments, read-out: Male worm motility inhibition (EC50), values of independent experiments): 2680 nM
EC50 ([1]; male, 24 h, individual experiments, read-out: Male worm motility inhibition (EC50), values of independent experiments): 2320 nM and 2840 nM
EC50 ([1]; male, 48 h, individual experiments, read-out: Male worm motility inhibition (EC50), values of independent experiments): 2120 nM and 1990 nM
EC50 ([1]; male, 72 h, individual experiments, read-out: Male worm motility inhibition (EC50), values of independent experiments): 1990 nM
activation of Sm.TRPMMCLZ (Sm.TRPMMCLZ): did not activate
CC50 at 48 h (in vitro): ~300000 nM
CC50 at 48 h (in vitro; values of independent experiments): 286000 nM
Selectivity Index (CC50/EC50), Female ([2]; HepG2 CC50 / female worm motility EC50, 48 h): 75.4 and 75
Selectivity Index (CC50/EC50), Male ([2]; HepG2 CC50 / male worm motility EC50, 48 h): 154.7 and 155
Selectivity Index (SI), sex not specified ([2]; HepG2 vs adult worms, 48 h): > 100
